Data as given in US9938292B2 (GUANGDONG ZHONGSHENG PHARMACEUTICAL CO., LTD, priority 2014, dated 2018).

The molecules below were run on Hedgehog signaling pathway (assay: Gli-Luc luciferase reporter gene assay in C3H10T1/2/Gli-Luc cells under Shh-N stimulation). Conditions: 24 h, luciferase RLU, read-out: biological activity: IC50 of the inhibitory activities of compounds on the hedgehog pathway.
Format: cell-based
How it was run: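 IC50 derived by curve fitting of luciferase RLU against log compound concentration. Stable C3H10T1/2/Gli-Luc cells, seeded overnight, were co-treated 24 h with serially diluted compound (7 points, duplicate wells) and 30 nM Shh-N-containing HEK293 conditioned medium before lysis and luminescence readout.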
Molecule `Cc1cn(-c2ccc(N3C[C@@H](C)N(C(=O)c4ccccc4)[C@H](C)C3)cc2)c(=O)c2cccc(-c3ccc(C#N)cc3)c12` [Embodiment 21] has an IC50 of 100 to 500 nM.

Same assay, conditions: Mus musculus, C3H 10T1/2, 24 h, luciferase RLU, read-out: biological activity: IC50 of the inhibitory activities of compounds on the hedgehog pathway
In the case of `COc1c(-c2ccc(N3C[C@@H](C)O[C@@H](C)C3)cc2)cnc2c(-c3ccc(Cl)c(Cl)c3)cccc12` [Embodiment 98], the IC50 is reported as ≤ 50 nM.
`N#Cc1ccc(-c2cccc3c(C4CC4)c(N4CCN(c5cc[nH]c(=O)c5)CC4)cnc23)cc1` [Embodiment 271, 4-(4-cyclopropyl-3-(4-(2-oxo-1,2-dihydropyridin-4-yl)piperazin-1-yl)quinolin-8-yl) benzonitrile] gave an IC50 of 100 to 500 nM.
With `COc1c(N2CCN(c3cnc(C(C)(C)O)cn3)C(C)C2)cnc2c(-c3ccc(C#N)cc3)cccc12` (stereo not shown) [Embodiment 225] the IC50 was ≤ 50 nM.
With `COc1c(-c2ccc(N3C[C@@H](C(C)(C)O)O[C@@H](C)C3)cc2)cnc2c(-c3ccc(C#N)cc3)cccc12` [Embodiment 192, 4-(3-(4-((2S, 6S)-2-(2-hydroxypropan-2-yl)-6-methylmorpholino)phenyl)-4-methoxyquinolin-8-yl)benzonitrile] the IC50 was ≤ 50 nM.
`COc1c(N2CCN(c3cc(C)nc(C)c3)CC2)cnc2c(-c3ccc(C#N)cc3)cccc12` [Embodiment 217, 4-(3-(4-(2,6-dimethylpyridin-4-yl)piperazin-1-yl)-4-methoxyquinolin-8-yl)benzonitrile] showed an IC50 of 100 to 500 nM.
For `CC(C)(O)c1ccc(N2CCN(c3cnc4c(-c5ccc(C#N)cc5)cccc4c3C3CC3)CC2=O)nc1` [Embodiment 236, 4-(4-cyclopropyl-3-(4-(5-(1-hydroxy-1-methyl-ethyl)pyridin-2-yl)-3-oxo-piperazin-1-yl)quinolin-8-yl)benzonitrile], the IC50 was ≤ 50 nM.
With `COc1c(N2CCN(c3ccc(C(C)(C)O)cn3)C(C)C2)cnc2c(-c3ccc(C#N)cc3)cccc12` (stereo not shown) [Embodiment 226] the IC50 was ≤ 50 nM.
With `CC(C)(O)c1ccc(N2CCN(c3cnc4c(-c5ccc(C#N)cc5)cccc4c3C3CC3)CC2)nc1` [Embodiment 224] the IC50 was ≤ 50 nM.
With `Cc1cn(-c2ccc(N3Cc4nnc(C(F)(F)F)n4C(C)C3)cc2)c(=O)c2cccc(-c3ccc(C#N)cc3)c12` (stereo not shown) [Embodiment 41, 4-(4-methyl-2-(4-(5-methyl-3-(trifluoromethyl)-5,6-dihydro-[1,2,4]triazolo[4,3-a]pyrazin-7(8H)-yl)phenyl)-1-oxo-1,2-dihydroisoquinolin-5-yl)benzonitrile] the IC50 was ≤ 50 nM.
For `Cc1cn(-c2ccc(N3C[C@@H](C)O[C@@H](C)C3)cc2)c(=O)c2cccc(-c3cccc(C#N)c3)c12` [Embodiment 63], the IC50 was 1000 to 5000 nM.
`CCC(=O)N1[C@H](C)CN(c2ccc(-c3cnc4c(-c5ccc(C#N)cc5C)cccc4c3OC)cn2)C[C@@H]1C` [Embodiment 202] was tested, and the IC50 was ≤ 50 nM.
`Cc1cn(-c2ccc(N3CC4CCC(C3)O4)cc2)c(=O)c2cccc(-c3ccc(C#N)cc3)c12` [Embodiment 7] was tested, and the IC50 was 500 to 1000 nM.
Work on `CCCOC(=O)N1[C@H](C)CN(c2ccc(-c3cnc4c(-c5ccc(C#N)cc5)cccc4c3OC)cc2)C[C@@H]1C` [Embodiment 184] yielded an IC50 of 50 to 100 nM.
In the case of `COc1c(-c2ccc(N3C[C@@H](C)O[C@@H](C)C3)cc2)cnc2c(-c3ccc(C#N)cc3)cccc12` [Embodiment 88, 4-(3-(4-((2S,6R)-2,6-dimethylmorpholino)phenyl)-4-methoxyquinolin-8-yl) benzonitrile], the IC50 is reported as ≤ 50 nM.
In the case of `CC1CN(c2cnc3c(-c4ccc(C#N)cc4)cccc3c2Br)CCN1c1ccc(C(C)(C)O)cn1` (stereo not shown) [Embodiment 219, 4-(4-bromo-3-(4-(5-(2-hydroxypropan-2-yl)pyridin-2-yl)-3-methylpiperazin-1-yl)quinolin-8-yl)benzonitrile], the IC50 is reported as ≤ 50 nM.
In the case of `COc1c(-c2ccc(N3Cc4nnc(C(F)(F)F)n4C(C)C3)cc2)cnc2c(-c3ccc(C#N)cc3)cccc12` (stereo not shown) [Embodiment 190, 4-(4-methoxy-3-(4-(5-methyl-3-(trifluoromethyl)-5,6-dihydro-[1,2,4]triazolo[4,3-a]pyrazin-7(8H)-yl)phenyl)quinolin-8-yl)benzonitrile], the IC50 is reported as ≤ 50 nM.
Molecule `CC(C)(O)c1ccc(N2CC3(C2)CN(c2cnc4c(-c5ccc(C#N)cc5)cccc4c2C2CC2)C3)nc1` [Embodiment 255, 4-(4-cyclopropyl-3-(6-(5-(2-hydroxypropan-2-yl)pyridin-2-yl)-2,6-diazaspiro[3.3]heptan-2-yl)quinolin-8-yl)benzonitrile] has an IC50 of 100 to 500 nM.
With `COc1c(-c2ccc(N3C[C@@H](C)O[C@@H](C)C3)nc2)cnc2c(-c3ccc(S(C)(=O)=O)cc3)cccc12` [Embodiment 161] the IC50 was ≤ 50 nM.
`COc1c(-c2ccc(N3C[C@@H](C)O[C@@H](C)C3)cc2)cnc2c(-c3ccc(C#N)cc3)ccnc12` [Embodiment 147, 4-(7-(4-((2S,6R)-2,6-dimethylmorpholino)phenyl)-8-methoxy-1,5-naphthyridin-4-yl) benzonitrile] gave an IC50 of 100 to 500 nM.
For `COc1c(-c2ccc(N3C[C@@H](C)O[C@@H](C)C3)nc2)cnc2c(-c3ccc(C(C)C)nc3Cl)cccc12` [Embodiment 164], the IC50 was 100 to 500 nM.
Molecule `Cc1cn(-c2ccc(N3CCN4C(=O)OCC4C3)cc2)c(=O)c2cccc(-c3ccc(C#N)cc3)c12` (stereo not shown) [Embodiment 42, 4-(4-methyl-1-oxo-2-(4-(3-oxotetrahydro-1H-oxazolo[3,4-a]pyrazin-7(3H)-yl)phenyl)-1,2-dihydroisoquinolin-5-yl)benzonitrile] has an IC50 of 100 to 500 nM.
For `Cc1cn(-c2ccc(N3CC(C)N(S(C)(=O)=O)C(C)C3)cc2)c(=O)c2cccc(-c3ccc(C#N)cc3)c12` (stereo not shown) [Embodiment 31], the IC50 was 100 to 500 nM.
In the case of `COc1c(-c2ccc(N3C[C@@H](C)N(C(=O)c4ccccn4)[C@@H](C)C3)cc2)cnc2c(-c3ccc(C#N)cc3)cccc12` [Embodiment 186], the IC50 is reported as ≤ 50 nM.
With `COc1c(-c2ccc(N3CC(C)OC(C)C3)cc2)cnc2c(-c3ccc(C#N)cc3)cc(F)cc12` (stereo not shown) [Embodiment 136, 4-(3-(4-(2,6-dimethylmorpholino)phenyl)-6-fluoro-4-methoxyquinolin-8-yl) benzonitrile] the IC50 was 50 to 100 nM.
With `CCC(=O)N1[C@H](C)CN(c2ccc(-c3nc4c(-c5ccc(C#N)cc5)cccc4[nH]3)cn2)C[C@@H]1C` [Embodiment 250, 4-(2-(6-(3,5-dimethyl-4-propionylpiperazin-1-yl)pyridin-3-yl)-1H-benzo[d]imidazol-4-yl)benzonitrile] the IC50 was 100 to 500 nM.
With `C[C@@H]1CN(c2ccc(-c3cnc4c(-c5ccc(C#N)cc5)cccc4c3N(C)C)cc2)C[C@H](C)O1` [Embodiment 119, 4-(4-(dimethylamino)-3-(4-((2S,6R)-2,6-dimethylmorpholino)phenyl)quinolin-8-yl) benzonitrile] the IC50 was 50 to 100 nM.
With `CS(=O)(=O)CCC(=O)N1CCN(c2cnc3c(-c4ccc(C#N)cc4)cccc3c2C2CC2)CC1` [Embodiment 267, 4-(4-cyclopropyl-3-(4-(3-(methylsulfonyl)-3-propanoyl))quinolin-8-yl) benzonitrile] the IC50 was ≤ 50 nM.
With `CCC(=O)N1[C@H](C)CN(c2ccc(NC(=O)c3cnc4c(-c5ccc(C#N)cc5)cccc4c3OC)cn2)C[C@@H]1C` [Embodiment 245, 8-(4-cyanophenyl)-N-(6-((3S,5R)-3,5-dimethyl-4-propionylpiperazin-1-yl)pyridin-3-yl)-4-methoxyquinoline-3-carboxamide] the IC50 was 100 to 500 nM.
In the case of `COc1c(-c2ccc(N3C[C@@H](C)O[C@@H](C)C3)cc2)cnc2c(-c3ccc(F)nc3)cccc12` [Embodiment 93], the IC50 is reported as ≤ 50 nM.
Work on `C[C@@H]1CN(c2ccc(-n3ccc4c(-c5ccc(OC(F)(F)F)cc5)cccc4c3=O)cc2)C[C@H](C)O1` [Embodiment 75] yielded an IC50 of 1000 to 5000 nM.
